From publication PMC6225165, “Design and Synthesis of Novel Dehydroepiandrosterone Analogues as Potent Antiproliferative Agents” (Molecules : A Journal of Synthetic Chemistry and Natural …, 2018)

Experiments:
A549 = test: MTT antiproliferative assay, A549; type: cell-based, human; conditions: 48 h, MTT; for inhibition at 100 µM: read-out: % Growth Inhibition at 100 μM A549
Method: (§1) The antiproliferative activity of the title compounds against the panel of six different human cancer cell lines, viz. lung (A549), cervix (HeLa), liver (HepG-2), liver (BEL7402), colorectal (HCT116), and breast (MCF-7) cell lines, was evaluated using a standard MTT-based colorimetric assay. All cell lines were obtained from the Key Laboratory of Natural Resources and Functional Molecules of the Changbai Mountain (Yanbian University) and maintained in Dulbecco’s modified Eagle’s medium (DMEM) and RPMI Media 1640 (RPMI1640), supplemented with 10% foetal bovine serum (FBS) at 37 °C in a humidified atmosphere containing 5% CO2.
(§2) Cells were plated in 96-well plates at appropriate densities to ensure exponential growth throughout the experimental period (9 × 10^3 cells per well), and then allowed to adhere for 24 h. Cells were then treated for 48 h with each compound. After 48 h of incubation, 10 μL of MTT solution were added to each well to a final concentration of 2 mg·mL^−1. Plates were then incubated for a further 4 h. After incubation, the MTT solution was removed and 150 μL of DMSO were added to each well for coloration. The plates were shaken vigorously for 10 min at room temperature to ensure complete solubilisation. The optometric density (OD) was read on a microplate reader (EL × 800, BioTek, Highland Park, Winooski, VT, USA) at 492 nm, and the data were subsequently analysed. The percentage of cell growth inhibition was calculated from the following equation:Inhibitory rate (%) = [1 − (ODtreated − ODblank)/(ODcontrol − ODblank)] × 100.
(§3) To obtain the antiproliferative activity of compounds 2a–2w, the compounds were selected in the same way with four serial concentrations (1, 10, 50 and 100 μM) of those compounds. The optometric density (OD) reading was then used to calculate the IC50.

Hela = test: MTT antiproliferative assay, Hela; type: cell-based, human; conditions: 48 h, MTT; for inhibition at 100 µM: read-out: % Growth Inhibition at 100 μM Hela
Method: as §1, §2, §3

HepG-2 = test: MTT antiproliferative assay, HepG-2; type: cell-based, human; conditions: 48 h, MTT; for inhibition at 100 µM: read-out: % Growth Inhibition at 100 μM HepG-2
Method: as §1, §2, §3

BEL7402 = test: MTT antiproliferative assay, BEL7402; type: cell-based, human; conditions: 48 h, MTT; for inhibition at 100 µM: read-out: % Growth Inhibition at 100 μM BEL7402
Method: as §1, §2, §3

HCT116 = test: MTT antiproliferative assay, HCT116; type: cell-based, human; conditions: 48 h, MTT; for inhibition at 100 µM: read-out: % Growth Inhibition at 100 μM HCT116
Method: as §1, §2, §3

MCF-7 = test: MTT antiproliferative assay, MCF-7; type: cell-based, human; conditions: 48 h, MTT; for inhibition at 100 µM: read-out: % Growth Inhibition at 100 μM MCF-7
Method: as §1, §2, §3

[1] = system: human normal liver (L02) cells; test: MTT assay on normal cell line L02; type: cell-based; conditions: 48 h, MTT; for % Growth Inhibition at 100 μM L02 / inhibition at 100 µM: normal cells; for inhibition at 100 µM: read-out: % Growth Inhibition at 100 μM L02; for IC50: normal cell line

Row | Compound | % Growth Inhibition at 100 μM A549 (A549) | % Growth Inhibition at 100 μM Hela (Hela) | % Growth Inhibition at 100 μM HepG-2 (HepG-2) | % Growth Inhibition at 100 μM BEL7402 (BEL7402) | % Growth Inhibition at 100 μM HCT116 (HCT116) | % Growth Inhibition at 100 μM MCF-7 (MCF-7) | % Growth Inhibition at 100 μM L02 [1] | inhibition at 100 µM (A549; Homo sapiens, A549) [%] | inhibition at 100 µM (Hela; Homo sapiens) [%] | inhibition at 100 µM (HepG-2; Homo sapiens, HepG2) [%] | inhibition at 100 µM (BEL7402; Homo sapiens, Bel-7402) [%] | inhibition at 100 µM (HCT116; Homo sapiens, HCT-116) [%] | inhibition at 100 µM (MCF-7; Homo sapiens, MCF7) [%] | inhibition at 100 µM ([1]; Homo sapiens, L02) [%] | also measured
1 | COc1cccc(-n2cc(/C=C3\CC4C5CC=C6CC(O)CCC6(C)C5CCC4(C)C3=O)nn2)c1 (centres unmarked) [Compound 2r, (E)-3-hydroxy-16-((1-(3-methoxyphenyl)-1H-1,2,3-triazol-4-yl)methylene)-10,13-dimethyl-1,3,4,7,8,9,10,11,12,13,15,16-dodecahydro-2H-cyclopenta[a]phenan-thren-17(14H)-one] | NA (NA: antiproliferative activity <5%) | NA (NA: antiproliferative activity <5%) | NA (NA: antiproliferative activity <5%) | NA (NA: antiproliferative activity <5%) | NA (NA: antiproliferative activity <5%) | NA (NA: antiproliferative activity <5%) | 16.9% | – | – | – | – | – | – | – | –
2 | COc1cc(-n2cc(/C=C3\CC4C5CC=C6CC(O)CCC6(C)C5CCC4(C)C3=O)nn2)cc(OC)c1OC (centres unmarked) [Compound 2u, (E)-3-hydroxy-10,13-dimethyl-16-((1-(3,4,5-trimethoxyphenyl)-1H-1,2,3-triazol-4-yl)methylene)-1,3,4,7,8,9,10,11,12,13,15,16-dodecahydro-2H-cyclopenta[a]phenanthren17(14H)-one] | – | – | – | – | – | – | – | 40.3 | 60.5 | 59.1 | 51.2 | 59.2 | 36.3 | 36.4 | –
3 | CC12CCC3C(CC=C4CC(O)CCC43C)C1C/C(=C\c1cn(-c3ccc(Cl)cc3)nn1)C2=O (centres unmarked) [Compound 2g, (E)-16-((1-(4-chlorophenyl)-1H-1,2,3-triazol-4-yl)methylene)-3-hydroxy-10,13-dimethyl-1,3,4,7,8,9,10,11,12,13,15,16-dodecahydro-2H-cyclopenta[a]phenanthren-17(14H)-one] | – | – | – | – | – | – | – | 69.8 | 62.8 | 32.5 | 66.9 | 78.7 | 39.9 | 40.9 | IC50 (A549; Homo sapiens, A549): 37.4 µM; IC50 (Hela; Homo sapiens, HeLa): 57.3 µM; IC50 (HepG-2; Homo sapiens, HepG2): > 100 µM; IC50 (BEL7402; Homo sapiens, Bel-7402): 58.2 µM; IC50 (HCT116; Homo sapiens, HCT-116): 23.4 µM; IC50 (MCF-7; Homo sapiens, MCF7): > 100 µM; IC50 ([1]; Homo sapiens, L02): > 100 µM
4 | COc1ccc(-n2cc(/C=C3\CC4C5CC=C6CC(O)CCC6(C)C5CCC4(C)C3=O)nn2)cc1 (centres unmarked) [Compound 2s, (E)-3-hydroxy-16-((1-(4-methoxyphenyl)-1H-1,2,3-triazol-4-yl)methylene)-10,13-dimethyl-1,3,4,7,8,9,10,11,12,13,15,16-dodecahydro-2H-cyclopenta[a]phenan-thren-17(14H)-one] | 44.0% | 14.9% | 42.3% | 38.4% | 70.7% | 58.1% | 58.5% | – | – | – | – | – | – | – | IC50 (A549): > 100 µM; IC50 (Hela): > 100 µM; IC50 (HepG-2): > 100 µM; IC50 (BEL7402): > 100 µM; IC50 (HCT116): 56.9 µM; IC50 (MCF-7): 69.4 µM; IC50 [1]: 81.1 µM
5 | CC12CCC3C(CC=C4CC(O)CCC43C)C1C/C(=C\c1cn(-c3cccc(Br)c3)nn1)C2=O (centres unmarked) [Compound 2j, (E)-16-((1-(3-bromophenyl)-1H-1,2,3-triazol-4-yl)methylene)-3-hydroxy-10,13-dimethyl-1,3,4,7,8,9,10,11,12,13,15,16-dodecahydro-2H-cyclopenta[a]phenan-thren-17(14H)-one] | NA (NA: antiproliferative activity <5%) | 20.5% | 10.8% | 37.6% | 42.0% | 42.1% | 43.8% | – | – | – | – | – | – | – | –
6 | COc1ccccc1-n1cc(/C=C2\CC3C4CC=C5CC(O)CCC5(C)C4CCC3(C)C2=O)nn1 (centres unmarked) [Compound 2q, (E)-3-hydroxy-16-((1-(2-methoxyphenyl)-1H-1,2,3-triazol-4-yl)methylene)-10,13-dimethyl-1,3,4,7,8,9,10,11,12,13,15,16-dodecahydro-2H-cyclopenta[a]phenan-thren-17(14H)-one] | 7.6% | NA (NA: antiproliferative activity <5%) | NA (NA: antiproliferative activity <5%) | 10.0% | 14.3% | 34.6% | NA (NA: antiproliferative activity <5%) | – | – | – | – | – | – | – | –
7 | Cc1ccc(-n2cc(/C=C3\CC4C5CC=C6CC(O)CCC6(C)C5CCC4(C)C3=O)nn2)cc1 (centres unmarked) [Compound 2p, (E)-3-hydroxy-10,13-dimethyl-16-((1-p-tolyl-1H-1,2,3-triazol-4-yl)methylene)-1,3,4,7,8,9,10,11,12,13,15,16-dodecahydro-2H-cyclopenta[a]phenanthren-17(14H)-one] | – | – | – | – | – | – | – | 63.1 | 64.6 | 76 | 23.7 | 76.5 | 21.7 | 67.1 | IC50 (A549; Homo sapiens, A549): 56.7 µM; IC50 (Hela; Homo sapiens, HeLa): 62.4 µM; IC50 (HepG-2; Homo sapiens, HepG2): 18.9 µM; IC50 (BEL7402; Homo sapiens, Bel-7402): > 100 µM; IC50 (HCT116; Homo sapiens, HCT-116): 44.1 µM; IC50 (MCF-7; Homo sapiens, MCF7): > 100 µM; IC50 ([1]; Homo sapiens, L02): 62.2 µM
8 | CC12CCC3C(CC=C4CC(O)CCC43C)C1C/C(=C\c1cn(-c3ccccc3Cl)nn1)C2=O (centres unmarked) [Compound 2e, (E)-16-((1-(2-chlorophenyl)-1H-1,2,3-triazol-4-yl)methylene)-3-hydroxy-10,13-di-methyl-1,3,4,7,8,9,10,11,12,13,15,16-dodecahydro-2H-cyclopenta[a]phenan-thren-17(14H)-one] | NA (NA: antiproliferative activity <5%) | 32.8% | NA (NA: antiproliferative activity <5%) | 10.5% | 23.0% | 37.3% | 12.4% | – | – | – | – | – | – | – | –
9 | CC12CCC3C(CC=C4CC(O)CCC43C)C1C/C(=C\c1cn(-c3cccc(I)c3)nn1)C2=O (centres unmarked) [Compound 2m, (E)-3-hydroxy-16-((1-(3-iodophenyl)-1H-1,2,3-triazol-4-yl)methylene)-10,13-dim-ethyl-1,3,4,7,8,9,10,11,12,13,15,16-dodecahydro-2H-cyclopenta[a]phenanthren-17(14H)-one] | NA (NA: antiproliferative activity <5%) | NA (NA: antiproliferative activity <5%) | NA (NA: antiproliferative activity <5%) | 14.1% | 7.6% | NA (NA: antiproliferative activity <5%) | NA (NA: antiproliferative activity <5%) | – | – | – | – | – | – | – | –
10 | CC12CCC3C(CC=C4CC(O)CCC43C)C1C/C(=C\c1cn(-c3ccc(C(F)(F)F)cc3)nn1)C2=O (stereo not drawn) [Compound 2w, (E)-3-hydroxy-10,13-dimethyl-16-((1-(4-(trifluoromethyl)phenyl)-1H-1,2,3-triazol4-y)methylene)-1,3,4,7,8,9,10,11,12,13,15,16-dodecahydro-2H-cyclopenta[α] phenanthren-17(14H)-one] | 75.2% | 44.1% | 48.3% | 62.2% | 75.0% | 41.3% | 57.6% | – | – | – | – | – | – | – | IC50 (A549): 72.5 µM; IC50 (Hela): > 100 µM; IC50 (HepG-2): > 100 µM; IC50 (BEL7402): 94 µM; IC50 (HCT116): 22.7 µM; IC50 (MCF-7): > 100 µM; IC50 [1]: 93.7 µM
